Measurements reported in US8853373B2, “Method and reagent for gene sequence analysis” (Hitachi, Ltd., priority 2009, dated 2014).

Key:
Format in all cases: biochemical
[1] = system: nucleotides G, C, and A (Sequence GA, Sequence CG, Sequence AG); test: Exclusivity of the other nucleotides (G, C, and A), elongation luminescence; conditions: for Exclusivity of the other nucleotides (G, C, and A): CG, AG, luminescence normalized to dCTP, dGTP, dTTP as 1
Protocol: (§1) Incorporation into nucleic acid was evaluated as follows. First, one of the above sequences was used as a target. Next, the primer was made to complementarily bind to the target. Then, an elongation experiment was carried out using the respective nucleic acid substrates for that sample. The synthesized nucleic acid substrate requires an affinity (complementary characteristics) with nucleotide T, and exclusivity of the other nucleotides (G, C, and A). The affinity with nucleotide T was evaluated using the Sequence TG and the primer. The exclusivity of the other nucleotides (G, C, and A) was evaluated using the respective Sequence GA, Sequence CG, and Sequence AG, and the primer. In addition, Sequence 5T was used for the evaluation of an ability of continuous incorporation into nucleotide T.
(§2) A sequencing method using a stepwise chemical reaction is described below. First, 35 μL of ultrapure water, 5 μL of oligo DNA (10 μM) of analysis object (target), and 5 μL of a primer (20 μM) were mixed with 5 μL of a hybridization buffer (10 mM Tris-Acetate, 20 mM Mg-Acetate, pH 7.75) (a sample solution: the final volume was 50 μL). Then, the sample solution was heated at 94° C. for 20 seconds, and reacted at a Tm temperature of the primer for 2 minutes. After that, 0.5 μL, (target: […], primer: […]) of this sample solution, 20 of a luminescence reagent which is designated in Condition 2 of Table 1, and 0.2 μL of a polymerase enzyme (the final concentration: 0.05 U/4) were mixed to prepare a reaction reagent (the final volume was 20.7 μL). To this reaction reagent was added 0.4 μL of 100 μM nucleic acid substrate (the final concentration 2 μM). When nucleic acid elongation occurs, bioluminescence derived from pyrophosphate of the elongation reaction product can be observed. The reaction has a luminescence peak a few seconds after the reaction initiation. […] This luminescence peak value is virtually proportional to the amount of generated pyrophosphate. Measurement of the peak value enables a degree of nucleic acid elongation to be estimated.
Next, with regard to the respective synthetic substrates, the exclusivity of the other nucleotides (G, C, and A) was assessed using each of Sequence GA, Sequence CG, and Sequence AG and the primer. […] In addition, a background luminescence component of the respective substrates was compensated by taking its difference into account in a manner similar to that of the preceding figures.

[2] = system: 5 consecutive nucleotides of T (Sequence 5T); test: Ability of incorporation into consecutive nucleotides of T (Sequence 5T), three consecutive injections; conditions: 5 consecutive nucleotides; final concentration 4 μM; E1 = luminescence of 2nd and 3rd injections / total of 1st to 3rd
Protocol: as §1, §2
Next, by using Sequence 5T, the ability of incorporation of the respective synthetic substrates into consecutive nucleotides of T was evaluated by the following procedure. The reaction reagent was prepared by using Sequence 5T as a target oligo in the same manner as in the case of evaluation of elongation of one nucleotide as described before. In this case, a target oligo 111 and a primer 112 form a complementary strand binding as depicted in FIG. 11(1). Due to the above, when dATP is dispensed into this reaction reagent as a substrate, five molecules of the substrate are consecutively elongated per target molecule as a primer having the substrate at the 3′ end 113, thereby releasing five molecules of pyrophosphate. If the elongation for all the five nucleotides is not completed, a portion of the nucleotide T remains in a single-stranded state. Because of this, when substrate dATP is dispensed again, the portion is elongated only in the case where a portion of incomplete elongation remains. Therefore, the release of pyrophosphate can be detected as luminescence. […] In addition, substrate dCTP, which is complementary to nucleotide G 114, was subsequently dispensed twice to detect luminescence. […]

[3] = system: nucleotide T (Sequence TG); test: Affinity between synthetic substrates and nucleotide T (one-nucleotide elongation, Sequence TG, luminescence); conditions: compared with dATPαS / other substrates
Protocol: as §1
A sequencing method using a stepwise chemical reaction is described below. […] After that, 0.5 μL, (target: […], primer: […]) of this sample solution, 20 of a luminescence reagent which is designated in Condition 2 of Table 1, and 0.2 μL of a polymerase enzyme (the final concentration: 0.05 U/4) were mixed to prepare a reaction reagent (the final volume was 20.7 μL). […] The reaction has a luminescence peak a few seconds after the reaction initiation. […] This luminescence peak value is virtually proportional to the amount of generated pyrophosphate. […]

luciferase = luciferase (Photinus pyralis, UniProt P08659); test: Evaluation of substrate specificity for luciferase (luminescence on dispensing the substrate)
Protocol: In respect to the nucleic acid substrates synthesized, whether or not the substrates became a substrate for luciferase was evaluated by the following procedure. First, a luminescence reagent designated in Condition 1 of Table 1 was prepared.
Next, a reaction solution was prepared using 20 μL of this luminescence reagent, and 0.2 μL of a nucleic acid substrate of evaluation subject was injected. Then, luminescence emitted at this occasion was estimated. FIG. 6 is a graph showing the amount of luminescence when ATP, dATP, C^7dATP, and dATPαS are each dispensed as a substrate. The abscissa (C) indicates a final concentration of the compound in a reaction reagent. For example, when 0.2 μl of 1 μM substrate is dispensed, the final concentration is about 0.01 μM. An amount of luminescence (U) indicated in the ordinate was plotted by normalizing the amount of luminescence at 0.01 μM of ATP as 1. From this graph, the amount of luminescence (U) is found to be proportional to the final concentration (C). Because of this, as a substrate specificity (or substrate reactivity) for luciferase, the value (S) indicating the amount of luminescence per unit concentration is defined as described below. Substrate specificity (S)≡Amount of luminescence (U)/Final concentration (C)[μM]×0.01 (In this Definition, the Substrate Specificity of ATP is Normalized as 1).
The four points designated in the left side of the graph indicate each substrate specificity (S) of ATP, dATP, dATPαS, and C^7dATP. For a sequencing method using a stepwise chemical reaction represented by pyrosequencing, the amount of ATP generated from pyrophosphate produced in elongation of one nucleotide is equivalent to the amount of a target present in a reaction solution when all of the targets have been elongated. In addition, elongation of a plurality of nucleotides causes the amount to be multiplied by the number of the nucleotides. Generally speaking, the amount of a nucleic acid substrate which should be dispensed per reaction for sequencing requires about 100 times the amount of the target for analysis. This is because a sequenced region may sometimes contain about 10 consecutive identical nucleotides; and a reaction solution for this sequencing method has a substrate-degrading enzyme together, so that the nucleic acid elongation and substrate degradation are competed. Shortage of the substrates causes incomplete elongation, so that the following sequence analysis cannot be carried out. […] As a countermeasure against it, the substrate having about 100 times the target amount which has been generally used is preferably dispensed per reaction.
In this Example, the synthesized nucleic acid substrates were purified by liquid chromatography. However, removal of pyrophosphate that had been incorporated during the synthesis may be insufficiently carried out only by liquid chromatography-mediated purification. At that occasion, the present inventors treated the synthesized nucleic acid substrates by a pyrophosphate-degrading enzyme (PPase) to decompose the pyrophosphate. Specifically, the synthesized nucleic acid substrate was diluted in a reaction solution (100 mM Tris-Acetate, 0.5 mM EDTA, 5 mM Mg-Acetate, 1 mM DTT, pH 7.5) at a concentration of 500 μM. Then, PPase was added at 0.2 mU/μL, and the mixture was reacted at 30° C. for 30 minutes, which caused degradation of pyrophosphate in the solution. This method represents one example. […]

DNA Sequence S2 = test: Sequence analysis by stepwise chemical reaction (pyrogram), PPDK system, Condition 4; conditions: DNA Sequence S2 (3 consecutive nucleotides)
Protocol: Therefore, a sequence having 3 consecutive nucleotides of T was analyzed for comparison. Analyzed DNA Sequence S2 and a primer P3 are described below.
Of note is that Sequence P3 represents a primer sequence. This primer can complementarily bind to the underlined portion of the above DNA Sequence S2. FIGS. 16 to 20 show the results of a sequence analysis. In addition, the reagent conditions were listed together in the following Table 3.
In this experiment, an enzyme system which converts PPi into ATP has employed an enzyme system in which PPi and AMP are converted into ATP by PPDK as described in the conventional technique (Patent Literature 4). The items of the figure are identical to those of FIG. 15. At the bottom of the respective figures, the injected nucleotide types are designated. At the top, the nucleotide types which have been incorporated into a complementary DNA sequence of analysis object are designated. The substrate was injected in the order of “bases A, T, C, and G”, and 7 cycles were analyzed. As indicated in the target sequence, in this analysis, two regions (Cycle 4 and Cycle 7) having 3 consecutive nucleotides of A incorporated are present. Because of this, a difference in the ability of continuous incorporation of a nucleic acid substrate that is used as a nucleotide A can be assessed. Hereinafter, the details are described.
First, three kinds of the substrates (A3d, dATPαS, and C^7dATP) having the final concentration of 2 μM were used. The results of a sequence analysis will be described (FIGS. 16 to 20). […] At the time of dispensing A (surrounded by the circle ◯) which represented the injected nucleotide type, A3d was used. […] Accordingly, as the signal corresponding to A at the first cycle indicated, background luminescence was observed. Due to this phenomenon, the luminescence signal corresponding to nucleotide A constantly included the increased background luminescence. The symbol • in the figure denotes elongation luminescence corresponding to a nucleotide sequence of a sample. In contrast, the major luminescence without corresponding to the nucleotide sequence is represented by the symbol ∇. […] At the time of dispensing A (surrounded by the circle ◯) which represented the injected nucleotide type, dATPαS was used. The resulting pyrogram and the nucleotide sequence of a sample were compared. The symbol • in the figure denotes elongation luminescence corresponding to a nucleotide sequence of a sample. In contrast, the major luminescence without corresponding to the nucleotide sequence is represented by the symbol ∇. […] At the time of dispensing A (surrounded by the circle ◯) which represented the injected nucleotide type, C^7dATP was used. […] Accordingly, as the signal corresponding to A at the first cycle indicated, big background luminescence was observed. Due to this phenomenon, the luminescence signal corresponding to nucleotide A constantly included the increased background luminescence. The symbol x in the figure denotes just a background luminescence signal. The symbol • denotes elongation luminescence corresponding to a nucleotide sequence of a sample. However, the symbol (•) denotes inclusion of both elongation-derived luminescence and background luminescence. In contrast, the major luminescence without corresponding to the nucleotide sequence is represented by the symbol ∇.

Chain of luciferase (P08659 whole entry, species assumed): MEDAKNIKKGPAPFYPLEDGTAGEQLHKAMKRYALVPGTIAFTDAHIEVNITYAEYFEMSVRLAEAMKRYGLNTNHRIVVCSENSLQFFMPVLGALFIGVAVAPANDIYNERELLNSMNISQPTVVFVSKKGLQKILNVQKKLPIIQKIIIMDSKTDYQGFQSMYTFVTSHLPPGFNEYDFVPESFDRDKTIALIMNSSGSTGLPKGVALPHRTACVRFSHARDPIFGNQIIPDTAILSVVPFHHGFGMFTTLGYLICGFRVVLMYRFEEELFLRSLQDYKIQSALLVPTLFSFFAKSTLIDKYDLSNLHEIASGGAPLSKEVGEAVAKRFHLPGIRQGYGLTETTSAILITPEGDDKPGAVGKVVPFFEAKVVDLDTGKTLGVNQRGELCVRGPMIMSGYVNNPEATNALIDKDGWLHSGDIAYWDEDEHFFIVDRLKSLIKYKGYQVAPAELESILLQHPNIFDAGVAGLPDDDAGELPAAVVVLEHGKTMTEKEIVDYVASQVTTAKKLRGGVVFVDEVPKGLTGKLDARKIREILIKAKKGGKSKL

Q: Nc1ncnc2c1c(/C=C/C(=O)NCCc1ccccc1)cn2[C@H]1CC(O)[C@@H](COP(=O)(O)OP(=O)(O)OP(=O)(O)O)O1 (some centres unmarked) [A3a] was tested. Which “Exclusivity of the other nucleotides (G, C, and A)” value (“Exclusivity … (G, C, and A)” below) [1] did it give?
A: The value was “exhibits luminescence for all the three kinds of nucleotides”.

Q: For Nc1ncnc2c1c(/C=C/C(=O)NCCc1ccccn1)cn2[C@H]1CC(O)[C@@H](COP(=O)(O)OP(=O)(O)OP(=O)(O)O)O1 (some centres unmarked) [A3b], which “Exclusivity … (G, C, and A)” value [1] is on record?
A: Its value is “excellent exclusivity”.

Q: And the “Rate of Incomplete Elongation after the First Injection (%)” value [2]?
A: The value was 11.2 ± 2.9%.

Q: How did the “Reaction rate of nucleic acid elongation (luminescence profile)” value [3] turn out when CCCNC(=O)/C=C/c1cn([C@H]2CC(O)[C@@H](COP(=O)(O)OP(=O)(O)OP(=O)(O)O)O2)c2ncnc(N)c12 (some centres unmarked) [A3c] was run?
A: Its value is “higher reaction rate”.

Q: What about the “Exclusivity of nucleotide G” value [1] of the same compound?
A: The value was “a little poor exclusivity”.

Q: What about the “Exclusivity … (G, C, and A)” value [1] of the same compound?
A: The value was “generally good”.

Q: For NCCCCCCNC(=O)CCc1cn([C@H]2CC(O)[C@@H](COP(=O)(O)OP(=O)(O)OP(=O)(O)O)O2)c2ncnc(N)c12 (some centres unmarked) [B4], which “Exclusivity … (G, C, and A)” value [1] is on record?
A: The value was “exhibits luminescence”.

Q: For Nc1ncnc2c1ccn2[C@H]1C[C@H](O)[C@@H](COP(=O)(O)OP(=O)(O)OP(=O)(O)O)O1 [C^7dATP, 7-deaza-2′-deoxyadenosine triphosphate], which “Substrate specificity for luciferase compared with that of dATPαS” value (luciferase; FIG. 7) is on record?
A: Its value is “about two orders higher”.

Q: And the “Substrate specificity (S) for luciferase, relative to that of ATP” value (luciferase; amount of luminescence per unit concentration, substrate specificity of ATP normalized as 1)?
A: The value was “about 1/250”.

Q: What about the “Sequence analysis result as substitute for dATP” value (DNA Sequence S2; final concentration 2 μM, 7 cycles) of the same compound?
A: Its value is “substrate-derived background luminescence was large, so that the precise sequence identification was found to be difficult”.

Q: What about the “Sequence analysis result as substitute for dATP” value (DNA Sequence S2; final concentration 4 μM) of the same compound?
A: The value was “incomplete elongation for the nucleotide G at Cycle 5 was not improved”.
